According to paper PMC9966370, “Biological Evaluation and In Vitro Characterization of ADME Profile of In-House Pyrazolo[3,4-d]pyrimidines as Dual Tyrosine Kinase Inhibitors Active against Glioblastoma Multiforme” (Pharmaceutics, 2023):
Like-named read-outs stand apart in the source and are kept apart here. Marks after values point to notes of the source that are not given here.

Legend:
LN229 GBM cell line = experiment: antiproliferative activity, MTT assay, LN229; type: cell-based; details: Homo sapiens, LN-229, 72 h treatment
Method: (§1) Cell-based assays were performed using four GBM cell lines, i.e., U-87, LN18, LN229, and DBTRG, cultured in Dulbecco’s modified Eagle medium (DMEM) (U-87, LN18, and LN229) or Roswell Park Memorial Institute medium (RPMI 1640) (DBTRG). Both media were implemented with 10% fetal bovine serum (FBS), 2 mM L-glutamine, and 10,000 units/mL penicillin/streptomycin at 37 °C in a 5% CO2 atmosphere. […] The final concentration of DMSO used never exceeded 0.5% v/v, and appropriate controls were always performed in each assay. […] These were cultured in DMEM supplemented with 10% FBS, 2 mM L-glutamine, and 10,000 units/mL penicillin/streptomycin at 37 °C in a 5% CO2 atmosphere. The protocol used to assess the cytotoxic effect on both healthy cell lines was the same described above for the antiproliferative assay. For both the antiproliferative and the cytotoxic assays, 3-(4,5-dimethylthiazol-2-yl)-2,5-diphenyltetrazolium bromide (MTT) was used to assess cell viability as previously described. Briefly, 150 μL of MTT (5 mg/mL in FBS-free culture medium) was added to each well, and the plates incubated for 4 h in a 5% CO2 atmosphere at 37 °C. Afterward, formazan violet crystals were solubilized in 150 μL of isopropanol, and the absorbance was quantified at 570 nm using a Multiskan SkyHigh Microplate Spectrophotometer (ThermoFisher, Waltham, MA, USA). Cell viability was expressed as a percentage of DMSO-treated cells (controls), taken as 100%. […] To support MTT data, cytotoxicity assays was always paralleled by a careful observation of cells under a phase-contrast light microscope, as described in USP 28 (United States Pharmacopeia edition 2005) as an alternative method. This analysis was performed by an expert operator blind to the treatment, and exemplificative photos representing the effects of compound 5 on LN229 and DBTRG cells are reported in Figures S2 and S3 (Supplementary Materials).

U-87 GBM cell line [1] = details: previously published; cited from earlier work
keratinocytes HaCaT = experiment: cytotoxicity on nontumoral healthy cells, MTT assay, HaCaT; type: cell-based, human; details: 72 h treatment
Method: (§4) The protocol used to assess the cytotoxic effect on both healthy cell lines was the same described above for the antiproliferative assay. For both the antiproliferative and the cytotoxic assays, 3-(4,5-dimethylthiazol-2-yl)-2,5-diphenyltetrazolium bromide (MTT) was used to assess cell viability as previously described [20]. […] Afterward, formazan violet crystals were solubilized in 150 μL of isopropanol, and the absorbance was quantified at 570 nm using a Multiskan SkyHigh Microplate Spectrophotometer (ThermoFisher, Waltham, MA, USA). Cell viability was expressed as a percentage of DMSO-treated cells (controls), taken as 100%.

[2] = as above; type: cell-based, human; details: human, HaCaT keratinocytes, 72 h treatment
Method: as §4

LN18 GBM cell line = experiment: antiproliferative activity, MTT assay, LN18; type: cell-based; details: Homo sapiens, LN-18, 72 h treatment
Method: as §1

[3] = HLM, previously published, cited from earlier work; for Metabolite Formation M1: M1 = M − HCl + O; for Metabolite Formation M3: M3 = M—group bearing NH moiety in R2
fibroblasts FIBRO 2-93 = experiment: cytotoxicity on nontumoral healthy cells, MTT assay, FIBRO 2-93; type: cell-based, human; details: for CC50: 72 h treatment, MTT; for CC50 times higher than IC50: CC50 on FIBRO 2-93 and HaCaT vs IC50 on GBM cells
Method: as §4

[4] = as above; type: cell-based, human; details: human, FIBRO 2-93 healthy fibroblasts, 72 h treatment, MTT
Method: as §4

DBTRG GBM cell line = experiment: antiproliferative activity, MTT assay, DBTRG; type: cell-based; details: Homo sapiens, 72 h treatment
Method: as §1

PAMPA, GI permeability = type: in vitro ADME; details: RT; for GI membrane retention (MR%): 5 h, pH 7.4; for Papp at 5 h, 500 µM: pH 7.4, PAMPA
Method: (§2) UV/LC–MS chromatographic analyses were carried out using an Agilent 1100 LC/MSD VL system (G1946C) purchased from Agilent Technologies (Palo Alto, CA, USA). […] The analysis began with 5% B (t = 0–1 min), increased to 95% (t = 1–10 min), maintained at 95% (t = 10–19 min), and finally returned to 5% […]. The analyses were performed at a flow rate of 0.6 mL/min, UV detection was monitored at 254 nm, and spectra were acquired over the scan range of m/z 100–1000 in both positive and negative modes.
(§3) The DMSO stock of each compound was diluted with phosphate buffer (PBS 25 mM, pH 7.4) to a final concentration of 500 µM in order to obtain the “donor”. For GI and BBB permeability, filters were coated with 10 µL of 1% w/v dodecane phosphatidylcholine solution or 5 µL of 10% w/v CHCl3/dodecane brain polar lipid solution. The donor (150 µL) was poured over the artificial membranes on the filter plate. DMSO/PBS (300 µL, 1:1 v/v) was then added to the acceptor wells. After assembling the sandwich plates, the experiments were run for 5 h at room temperature (RT). Lastly, the amount of compound passed though the artificial membranes was determined using the UV/LC–MS method described above. Apparent permeability (Papp) and membrane retention (MR%) were determined as previously described.

U-87 GBM cell line [5] = experiment: antiproliferative activity, MTT assay, U-87; type: cell-based; details: Homo sapiens, 72 h treatment
Method: as §1

PAMPA, BBB permeability = type: in vitro ADME; details: RT; for BBB membrane retention (MR%): 5 h, pH 7.4; for Papp at 5 h, 500 µM: pH 7.4, PAMPA
Method: as §2, §3

[6] = metabolic stability assay in human liver microsomes; type: in vitro ADME; details: HLM 0.2 mg/mL, NADPH, 1 h, 37 °C
Method: as §2
Each DMSO compound solution was incubated for 1 h at 37 °C in the presence of 500 µL of PBS (25 mM, pH 7.4), human liver microsomal (HLM) proteins (0.2 mg/mL), and 10 mM NADPH solution in MgCl2 (48 mM). The reactions were stopped with 1.0 mL of cold ACN. The samples were centrifuged (4000 rpm for 10 min), and the supernatants were collected, dried under N2 flow, and suspended in 100 µL of methanol (MeOH). Parent drugs and metabolites were determined using the previously described HPLC/UV–MS method. The percentage metabolic stability was calculated by comparing the metabolized and unmetabolized compounds.

LN229 cells [7] = experiment: reversible/irreversible effect on LN229 cell death (MTT); type: cell-based, human; details: for further decrease in cell viability: 24 h treatment followed by 48 h without compound, vs 24 h
LN229 cells [8] = experiment: cell-cycle analysis by flow cytometry, LN229; type: cell-based, human; details: LN229, 72 h at IC50 (6.9 µM)
c-Src = target: T1, c-Src (Homo sapiens, UniProt P12931); experiment: cell-free enzymatic assay (ADP-Glo), c-Src; type: biochemical
T1 construct: purchased Promega (Madison, WI, USA)
Method: (§5) The reactions were carried out in accordance with the manufacturer’s instructions, with minor modifications. The experiments were run using all substrates at least twice the concentration of apparent Km. […] All reactions were run out at 30 °C for 10 min with 10–50 ng of enzyme and 10 µL of 10% DMSO. Protein low-binding tubes were used to prevent peptide adsorption onto the plastic surface. To detect kinase activity, the ADP-Glo Kinase Assay (Promega, Madison, WI, USA) was used according to the manufacturer’s protocol. Into white 384-well plates, reactions were stopped for 50 min at RT by adding 10 µL of ADP-Glo Reagent (Promega, Madison, WI, USA). After 30 min, 20 µL of Detection Reagent (Promega, Madison, WI, USA) was added, and the reaction was read using a GloMax Discover microplate reader (Promega, Madison, WI, USA). […] Compounds analyzed were considered to act as ATP-competitive inhibitors.

DBTRG cells = experiment: cell-cycle analysis by flow cytometry, DBTRG; type: cell-based, human; details: 72 h at IC50 (8.5 µM)
LN229 cells [9] = experiment: T-scratch assay (cell migration); type: cell-based, human; details: for wound closure: after 72 h; for wound left opened: all timepoints (24–48–72 h)
Method: The scratched area was observed and photographed at 10× magnification after 0–24–48–72 h (see Figure S5, Supplementary Materials).

[10] = parameters: method as in PMID 21443205; details: previously published; cited from earlier work
Abl = target: T2, Abl (Homo sapiens, UniProt P00519); experiment: cell-free enzymatic assay (ADP-Glo), Abl; type: biochemical; details: 30 µM ATP, 50 µM Abltide
T2 construct: purchased Promega (Madison, WI, USA)
Method: as §5

[11] = 100 µM ATP, 500 µM Src-peptide, read-out: c-Src Ki

T1 sequence (P12931 whole entry): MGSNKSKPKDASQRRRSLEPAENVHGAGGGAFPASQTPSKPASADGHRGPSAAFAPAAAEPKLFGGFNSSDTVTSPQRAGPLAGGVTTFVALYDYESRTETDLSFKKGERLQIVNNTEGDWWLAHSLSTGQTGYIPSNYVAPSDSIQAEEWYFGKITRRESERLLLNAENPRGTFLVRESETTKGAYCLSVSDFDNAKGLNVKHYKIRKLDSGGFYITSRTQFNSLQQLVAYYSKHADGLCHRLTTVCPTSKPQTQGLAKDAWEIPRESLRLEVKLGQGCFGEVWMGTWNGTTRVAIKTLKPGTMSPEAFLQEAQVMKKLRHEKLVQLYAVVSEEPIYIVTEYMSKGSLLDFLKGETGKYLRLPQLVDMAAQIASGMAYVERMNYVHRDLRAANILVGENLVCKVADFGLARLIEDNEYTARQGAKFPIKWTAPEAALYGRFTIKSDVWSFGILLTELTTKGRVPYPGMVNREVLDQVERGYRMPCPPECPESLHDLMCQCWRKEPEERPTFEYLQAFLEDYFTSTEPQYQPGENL
T2 sequence (P00519 whole entry): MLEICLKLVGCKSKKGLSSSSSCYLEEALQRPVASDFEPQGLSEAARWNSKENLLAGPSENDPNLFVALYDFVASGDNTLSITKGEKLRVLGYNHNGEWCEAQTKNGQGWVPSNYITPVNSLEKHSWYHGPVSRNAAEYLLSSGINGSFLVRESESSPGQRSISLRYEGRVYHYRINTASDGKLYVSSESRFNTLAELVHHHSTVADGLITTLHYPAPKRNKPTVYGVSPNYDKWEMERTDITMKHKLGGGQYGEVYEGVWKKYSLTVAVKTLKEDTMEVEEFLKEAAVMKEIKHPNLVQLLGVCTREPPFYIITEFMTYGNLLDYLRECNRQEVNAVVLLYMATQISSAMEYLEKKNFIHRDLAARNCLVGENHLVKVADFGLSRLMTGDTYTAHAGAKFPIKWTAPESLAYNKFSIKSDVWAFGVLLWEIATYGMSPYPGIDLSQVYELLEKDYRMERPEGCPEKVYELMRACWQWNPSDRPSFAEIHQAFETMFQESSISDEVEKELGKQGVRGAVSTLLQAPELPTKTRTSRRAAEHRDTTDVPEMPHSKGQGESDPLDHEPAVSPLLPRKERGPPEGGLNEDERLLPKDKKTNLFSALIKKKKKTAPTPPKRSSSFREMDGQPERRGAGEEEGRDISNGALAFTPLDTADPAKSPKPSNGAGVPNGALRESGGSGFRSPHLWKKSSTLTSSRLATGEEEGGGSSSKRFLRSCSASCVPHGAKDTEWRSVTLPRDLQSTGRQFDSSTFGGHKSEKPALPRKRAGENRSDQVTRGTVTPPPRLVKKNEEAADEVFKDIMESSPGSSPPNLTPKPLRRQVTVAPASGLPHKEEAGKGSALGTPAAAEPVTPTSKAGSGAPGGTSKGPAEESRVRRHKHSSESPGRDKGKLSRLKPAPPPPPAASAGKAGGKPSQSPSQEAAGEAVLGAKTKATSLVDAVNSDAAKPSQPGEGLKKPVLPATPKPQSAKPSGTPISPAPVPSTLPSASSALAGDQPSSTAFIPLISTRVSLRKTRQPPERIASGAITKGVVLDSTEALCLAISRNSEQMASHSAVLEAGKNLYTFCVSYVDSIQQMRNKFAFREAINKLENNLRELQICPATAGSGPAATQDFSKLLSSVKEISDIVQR

SMILES | IC50 (LN229 GBM cell line) [µM] | IC50 (LN18 GBM cell line) [µM] | IC50 (DBTRG GBM cell line) [µM] | GI membrane retention (MR%) (PAMPA, GI permeability) [%] | Papp at 5 h, 500 µM (PAMPA, GI permeability) [×10⁻⁶ cm/s] | IC50 (U-87 GBM cell line [5]) [µM] | BBB membrane retention (MR%) (PAMPA, BBB permeability) [%] | Papp at 5 h, 500 µM (PAMPA, BBB permeability) [×10⁻⁶ cm/s] | melting point [°C] | Metabolic Stability [6] [%] | further results
ClC(Cn1ncc2c(NCc3ccccc3)ncnc21)c1ccccc1 (centres unmarked) [Compound 1] | 3.4 ± 0.8 | 3.6 ± 0.5 | 4.3 ± 0.8 | – | – | – | – | – | – | – | IC50 (U-87 GBM cell line [1]): 2.9 ± 1.1 µM; CC50 (keratinocytes HaCaT): 88.7 ± 5.7 µM; CC50 at 72 h [2]: ~87 µM; Metabolite Formation M1 [3]: 14.5%; Metabolite Formation M2 ([3]; M2 = M + OH): < 0.1%; Metabolite Formation M3 [3]: 2.6%; Metabolite Formation M4 ([3]; M4 = M − Cl + OH (−35 + 17)): 4.5%; Metabolic Stability [3]: lower than 80%; CC50 (fibroblasts FIBRO 2-93): 86.9 ± 4.2 µM; CC50 times higher than IC50 (fibroblasts FIBRO 2-93): 10 times; CC50 at 72 h [4]: ~87 µM
ClC(Cn1ncc2c(NC3CC3)ncnc21)c1ccccc1 (centres unmarked) [Compound 2] | > 100 | 49.4 ± 2.8 | > 100 | 34.7 | 6.46 | > 100 | 55.0 | 4.96 | 194 to 195 | – | –
Fc1ccccc1CNc1ncnc2c1cnn2CC(Cl)c1ccccc1 (centres unmarked) [Compound 3] | 29.2 ± 2.6 | 27.5 ± 2.1 | 15.1 ± 2.1 | 7.3 | ≥ 10 | 40.2 ± 3.6 | 4.8 | ≥ 10 | – | 80.4 | –
Fc1ccc(CNc2ncnc3c2cnn3CC(Cl)c2ccccc2)cc1 (centres unmarked) [Compound 4] | > 100 | 9 ± 1.2 | 68.5 ± 3.8 | 7.8 | ≥ 10 | 29.8 ± 2.5 | 2.1 | ≥ 10 | 161 to 162 | – | –
Fc1ccc(C(Cl)Cn2ncc3c(NCc4ccccc4)ncnc32)cc1 (centres unmarked) [Compound 5] | 6.9 ± 0.5 | 10.8 ± 1.4 | 8.5 ± 1.4 | 9.2 | ≥ 10 | 6.8 ± 0.3 | 5.6 | ≥ 10 | 143 to 144 | 84.2 | further decrease in cell viability (LN229 cells [7]; 10 µM): ~ −30%; further decrease in cell viability (LN229 cells [7]; 100 µM): ~ −30%; reversibility of cytotoxic effect (LN229 cells [7]; 24 h treatment, 48 h drug-free medium): irreversible cytotoxic effect; change in cells in G0/G1 phase vs control (LN229 cells [8]): −32.4%; change in cells in sub G0/G1 phase vs control (LN229 cells [8]): +32.1%; percentage of cells in the S and G2/M phases vs control (LN229 cells [8]): No significant differences; CC50 (keratinocytes HaCaT): 126 ± 6.4 µM; CC50 at 72 h [2]: > 90 µM; Ki (c-Src; [11]): 3.14 ± 0.38 µM; change in cells in G2/M phase vs control (DBTRG cells): +38.1%; change in cells in sub G0/G1 area vs control (DBTRG cells): +15.6%; CC50 (fibroblasts FIBRO 2-93): 91.7 ± 5.3 µM; CC50 times higher than IC50 (fibroblasts FIBRO 2-93): 10 times; CC50 at 72 h [4]: > 90 µM; wound closure (LN229 cells [9]; 0.25 µM): ~60%; wound closure (LN229 cells [9]; 0.5 µM): ~60%; wound left opened (LN229 cells [9]; 2.5 µM): more than 80%; wound left opened (LN229 cells [9]; 5 µM): more than 80%
Fc1ccc(C(Cl)Cn2ncc3c(NCc4ccccc4F)ncnc32)cc1 (centres unmarked) [Compound 6] | 33.8 ± 2.3 | 11.7 ± 1.5 | 20.1 ± 1.8 | 10.1 | ≥ 10 | 32.4 ± 2.7 | 4.4 | ≥ 10 | – | 69.9 | Ki (c-Src; [11]): 0.07 ± 0.01 µM
Fc1ccc(CNc2ncnc3c2cnn3CC(Cl)c2ccc(Cl)cc2)cc1 (centres unmarked) [Compound 7] | 7.1 ± 1.1 | 3.9 ± 0.6 | 14.6 ± 0.9 | – | – | 22.7 ± 2.3 | 4.4 | ≥ 10 | – | – | CC50 at 72 h [2]: 37.8 ± 4.9 µM; Ki (c-Src; [11]): 0.8 ± 0.09 µM; Metabolite Formation M1 [3]: 4%; Metabolite Formation M3 [3]: 2%; CC50 at 72 h [4]: 28.6 ± 3.7 µM
CSc1nc(NCCc2ccccc2)c2cnn(CC(Cl)c3ccccc3)c2n1 (centres unmarked) [Compound 8] | 26.1 ± 2.8 | 5.9 ± 1.1 | 31.2 ± 2.5 | 42.7 | 3.2 | 37.9 ± 3.9 | 18.3 | 5.96 | – | – | –
ClC(Cn1ncc2c(NCc3ccccc3)nc(SCCN3CCOCC3)nc21)c1ccccc1 (centres unmarked) [Compound 9] | 58.2 ± 3.4 | 2.9 ± 0.5 | 59.4 ± 3.7 | – | – | > 100 | 6.3 | 2.6 | – | – | Metabolite Formation M1 [3]: M1 = 5 * %; QP LogS [10]: −5.6 *
Clc1ccc(C(Cl)Cn2ncc3c(NCCc4ccccc4)ncnc32)cc1 (centres unmarked) [Compound 10] | 27.9 ± 2.1 | 6.2 ± 1 | 46.5 ± 4.1 | 17.2 | ≥ 10 | 33.9 ± 2.9 | 4.8 | ≥ 10 | – | 85.9 | Ki (Abl): 0.31 ± 0.02 µM; Ki (c-Src): 0.22 ± 0.03 µM
Fc1cccc(CNc2ncnc3c2cnn3CCc2ccccc2)c1 [Compound 11] | 58.4 ± 3 | 34.1 ± 2.9 | 69.2 ± 3.9 | 6.7 | ≥ 10 | 56.9 ± 3.3 | 5.2 | ≥ 10 | 113 to 114 | – | –
ClC(Cn1ncc2c(Nc3ccccc3)ncnc21)c1ccc(Br)cc1 (centres unmarked) [Compound 12] | > 100 | > 100 | > 100 | – | – | – | – | – | – | – | IC50 (U-87 GBM cell line [1]): 14 ± 1.9 µM; Metabolic Stability [3]: ≥ 90%
